Test results taken from US8642572B2, “Cytidine derivative-containing antitumor agent for continuous intravenous administration” (Taiho Pharmaceutical Co., Ltd., priority 2007, dated 2014).

Assays:
[1] = system: human lung tumor cells (A549 strain); test: Effect of ECyd contact schedule on growth inhibition of A549 cells (Crystal Violet staining, constant AUC); assay type: cell-based
Experimental: The effects of the ECyd contact schedule on growth inhibition of human lung tumor cells (A549 strain) were investigated.
The experiment of Example 4 was performed at a constant AUC (product of contact time and ECyd concentration). Specifically, in each tested regimen, AUC was maintained at such a level that the ECyd concentration was adjusted to provide IC80 (0.08 μM) as a result of contact between ECyd and the A549 cells for 100 hours. In each tested regimen, A549 cells were seeded on a plate and treated with ECyd. Subsequently, the cell culture liquid was exchanged. The profile of cell growth thereafter was obtained through staining with Crystal Violet.

cancer patients = details: rapid intravenous injection, once every three weeks or once a week for three weeks and one week rest; cited from earlier work
[2] = system: patients of solid cancers; test: Phase I-equivalent test in cancer patients, once every three weeks: 24-hour continuous vs rapid intravenous administration, neurotoxicity occurrence and therapeutic effect (RECIST); assay type: in vivo, human
Experimental: A group of cancer patients was repeatedly subjected to a course including a 24-hour continuous intravenous administration once every three weeks at a dose of 2.80 to 8.56 mg/m^2 as reduced to ECyd for each administration. Another group of cancer patients was repeatedly subjected to a course including a rapid intravenous administration once every three weeks at a dose of 2.81 to 9.46 mg/m^2 as reduced to ECyd. In both cases, the neurotoxicity occurrence and the therapeutic effect by ECyd were investigated.
(§1) The above test is equivalent to the phase I clinical trial, which is performed mainly for evaluating safety of the tested drug and determining the recommended dose (RD) of the drug, which ensures safety of the drug without adverse effects in the phase II clinical trial carried out with respect to the target cancer. The test is carried out for patients of solid cancers (e.g., gastrointestinal cancers, head and neck cancer, and breast cancer) which cannot be cured by a standard therapeutic method or to which no effective method is applicable. When the test is performed, if possible, the therapeutic effect on the target tumor is assessed. In the following examples, the therapeutic effect on the target tumor was assessed in accordance with the RECIST method (see Journal of the National Cancer Institute, 2000, Vol. 92, No. 3, p. 205 to 216). The effect of ECyd on shrinkage of the tumor was confirmed generally from a target lesion (a lesion having a size equal to or greater than the measurable size depending on the slice width obtained through CT or similar means) and the non-target lesions (all lesions other than the target lesion). […] PD (progressive disease) refers to a state in which the sum of the longer diameters of target lesions was increased by 20% or more as compared with the minimum sum of the longer diameters recorded after start of the test, or a state in which clear exacerbation in the non-target lesions or a new lesion was observed. SD (stable disease) refers to a state in which the degree of tumor shrinkage cannot be evaluated as PR and which cannot be evaluated as PD, and in which the tumor progress has stopped and no exacerbation was observed. MR (minor response) refers to a case in which a certain tumor shrinkage degree of about 15% was maintained (although it was less than 30%), or in which a therapeutic effect corresponding to PR is temporarily observed.

[3] = system: patients of solid cancers; test: Test in cancer patients, 4-hour continuous vs rapid intravenous administration, neurotoxicity occurrence and therapeutic effect; assay type: in vivo, human
Experimental: as §1
A course including a 4-hour continuous intravenous administration once every three weeks out of a continuous four-week period at a dose of 1.30 mg/m^2 as reduced to ECyd for each administration was repeatedly performed. Also, a course including a rapid intravenous administration once every three weeks out of a continuous four-week period at a dose of 1.32 mg/m^2 as reduced to ECyd was repeatedly performed. In both cases, the neurotoxicity occurrence and the therapeutic effect by ECyd were investigated. In Example 2, selection of the patients and the method and ratings of evaluation were the same as employed in Example 1.

[4] = system: neural-crest-derived rat adrenal medulla chromaffin cells (PC12 strain); test: Effect of ECyd contact schedule on growth inhibition of PC12 cells (Crystal Violet staining, constant AUC); assay type: cell-based; details: for growth of PC12 cells after ECyd contact: constant AUC
Experimental: The effects of the ECyd contact schedule on growth inhibition of neural-crest-derived rat adrenal medulla chromaffin cells (PC12 strain) were investigated.
The experiment of Example 3 was performed at a constant AUC (product of contact time and ECyd concentration). Specifically, in each tested regimen, AUC was maintained at such a level that the ECyd concentration was adjusted to provide IC80 (0.08 μM) as a result of contact between ECyd and the PC12 cells for 100 hours. In each tested regimen, PC12 cells were seeded on a plate and treated with ECyd. Subsequently, the cell culture liquid was exchanged. The profile of cell growth thereafter was obtained through staining with Crystal Violet.

[5] = rapid intravenous administration once every three weeks, 6.31 mg/m^2

C#C[C@@]1(O)[C@@H](CO)O[C@@H](n2ccc(N)nc2=O)[C@@H]1O [ECyd, 1-(3-C-Ethynyl-β-D-ribopentofuranosyl)cytosine]
IC80 ([1]; Homo sapiens, A549 cells, contact for 100 hours): 80 nM
growth of A549 cells after ECyd contact ([1]; contact times of 0.5 to 100 hours, constant AUC, day 6): virtually unrestored
dose-limiting toxicity (cancer patients): peripheral neurotoxicity was observed as a dose-limiting toxicity
peripheral neurotoxicity ([2]; 24-hour continuous intravenous administration once every three weeks, 2.80 mg/m^2 to 5.48 mg/m^2): no peripheral neurotoxicity was observed
therapeutic effect ([2]; rapid intravenous administration once every three weeks, 2.81 mg/m^2): no therapeutic effect was observed
cases exhibiting peripheral neurotoxicity ([2]; rapid intravenous administration once every three weeks, 2.81 mg/m^2, two of the three cases): 66%
cases exhibiting peripheral neurotoxicity [2, 5]: two of the three cases
therapeutic efficacy (SD or higher) [2, 5]: two of the three cases
therapeutic efficacy (SD or higher) ([3]; 4-hour continuous intravenous administration, 1.30 mg/m^2): 66%
cases exhibiting peripheral neurotoxicity ([3]; 4-hour continuous intravenous administration, 1.30 mg/m^2, one of the three cases): 33%
therapeutic efficacy (SD or higher) ([3]; rapid intravenous administration, 1.32 mg/m^2): no therapeutic efficacy (SD or higher) was observed
cases exhibiting peripheral neurotoxicity ([3]; rapid intravenous administration, 1.32 mg/m^2, one of the three cases): 33%
IC80 ([4]; Rattus norvegicus, PC-12, PC12 cells, contact for 100 hours): 80 nM
growth of PC12 cells after ECyd contact ([4]; contact time of 0.5 hours, day 6): virtually unrestored
growth of PC12 cells after ECyd contact ([4]; contact times of 25 and 100 hours): restored
